Source: the NIST ThermoML archive (doi:10.1021/acs.jced.9b00540)
Numbers after ± are expanded uncertainties.

Assay: xn = mol fraction of the nth substance listed
Conditions: Liquid

Compound `CCOC(F)(C(F)(F)C(F)(F)C(F)(F)F)C(F)(C(F)(F)F)C(F)(F)F` (stereo not given) [2-trifluoromethyl-3-ethoxydodecafluorohexane] + CC(C)OC(C)C has a viscosity (293.15 K, 100 kPa, Capillary tube (Ostwald / Ubbelohde) method, x1 = 0.25) of 0.483 ± 0.01 mPa·s, a viscosity (293.15 K, 100 kPa, Capillary tube (Ostwald / Ubbelohde) method, x1 = 0.375) of 0.573 ± 0.012 mPa·s and a viscosity (293.15 K, 100 kPa, Capillary tube (Ostwald / Ubbelohde) method, x1 = 0.5) of 0.685 ± 0.014 mPa·s. The viscosity (293.15 K, 100 kPa, Capillary tube (Ostwald / Ubbelohde) method, x1 = 0.625) was 0.818 ± 0.017 mPa·s, the viscosity (293.15 K, 100 kPa, Capillary tube (Ostwald / Ubbelohde) method, x1 = 0.75) was 0.985 ± 0.021 mPa·s and the viscosity (293.15 K, 100 kPa, Capillary tube (Ostwald / Ubbelohde) method, x1 = 1) was 1.369 ± 0.029 mPa·s. For the same compound, the viscosity (293.15 K, 20000 kPa, Falling or rolling sphere viscometry, x1 = 0.25) was 0.602 ± 0.013 mPa·s, the viscosity (293.15 K, 20000 kPa, Falling or rolling sphere viscometry, x1 = 0.375) was 0.751 ± 0.017 mPa·s and the viscosity (293.15 K, 20000 kPa, Falling or rolling sphere viscometry, x1 = 0.5) was 0.939 ± 0.021 mPa·s. It also gave a viscosity (293.15 K, 20000 kPa, Falling or rolling sphere viscometry, x1 = 0.625) of 1.1 ± 0.024 mPa·s, a viscosity (293.15 K, 20000 kPa, Falling or rolling sphere viscometry, x1 = 0.75) of 1.315 ± 0.029 mPa·s and a viscosity (293.15 K, 20000 kPa, Falling or rolling sphere viscometry, x1 = 1) of 1.894 ± 0.043 mPa·s. The viscosity (293.15 K, 40000 kPa, Falling or rolling sphere viscometry, x1 = 0.25) was 0.732 ± 0.016 mPa·s, the viscosity (293.15 K, 40000 kPa, Falling or rolling sphere viscometry, x1 = 0.375) was 0.944 ± 0.021 mPa·s and the viscosity (293.15 K, 40000 kPa, Falling or rolling sphere viscometry, x1 = 0.5) was 1.198 ± 0.026 mPa·s. The viscosity (293.15 K, 40000 kPa, Falling or rolling sphere viscometry, x1 = 0.625) was 1.412 ± 0.031 mPa·s, the viscosity (293.15 K, 40000 kPa, Falling or rolling sphere viscometry, x1 = 0.75) was 1.727 ± 0.038 mPa·s and the viscosity (293.15 K, 40000 kPa, Falling or rolling sphere viscometry, x1 = 1) was 2.645 ± 0.059 mPa·s. It also gave a viscosity (293.15 K, 60000 kPa, Falling or rolling sphere viscometry, x1 = 0.25) of 0.883 ± 0.019 mPa·s, a viscosity (293.15 K, 60000 kPa, Falling or rolling sphere viscometry, x1 = 0.375) of 1.171 ± 0.026 mPa·s and a viscosity (293.15 K, 60000 kPa, Falling or rolling sphere viscometry, x1 = 0.5) of 1.49 ± 0.033 mPa·s. For the same compound, the viscosity (293.15 K, 60000 kPa, Falling or rolling sphere viscometry, x1 = 0.625) was 1.802 ± 0.04 mPa·s, the viscosity (293.15 K, 60000 kPa, Falling or rolling sphere viscometry, x1 = 0.75) was 2.255 ± 0.05 mPa·s and the viscosity (293.15 K, 60000 kPa, Falling or rolling sphere viscometry, x1 = 1) was 3.622 ± 0.081 mPa·s. It also gave a viscosity (293.15 K, 80000 kPa, Falling or rolling sphere viscometry, x1 = 0.25) of 1.058 ± 0.023 mPa·s, a viscosity (293.15 K, 80000 kPa, Falling or rolling sphere viscometry, x1 = 0.375) of 1.435 ± 0.031 mPa·s and a viscosity (293.15 K, 80000 kPa, Falling or rolling sphere viscometry, x1 = 0.5) of 1.82 ± 0.04 mPa·s. It also gave a viscosity (293.15 K, 80000 kPa, Falling or rolling sphere viscometry, x1 = 0.625) of 2.291 ± 0.05 mPa·s, a viscosity (293.15 K, 80000 kPa, Falling or rolling sphere viscometry, x1 = 0.75) of 2.936 ± 0.065 mPa·s and a viscosity (293.15 K, 80000 kPa, Falling or rolling sphere viscometry, x1 = 1) of 4.894 ± 0.11 mPa·s. For the same compound, the viscosity (293.15 K, 100000 kPa, Falling or rolling sphere viscometry, x1 = 0.25) was 1.26 ± 0.028 mPa·s, the viscosity (293.15 K, 100000 kPa, Falling or rolling sphere viscometry, x1 = 0.375) was 1.741 ± 0.038 mPa·s and the viscosity (293.15 K, 100000 kPa, Falling or rolling sphere viscometry, x1 = 0.5) was 2.197 ± 0.048 mPa·s. For the same compound, the viscosity (293.15 K, 100000 kPa, Falling or rolling sphere viscometry, x1 = 0.625) was 2.902 ± 0.064 mPa·s, the viscosity (293.15 K, 100000 kPa, Falling or rolling sphere viscometry, x1 = 0.75) was 3.814 ± 0.085 mPa·s and the viscosity (293.15 K, 100000 kPa, Falling or rolling sphere viscometry, x1 = 1) was 6.553 ± 0.14 mPa·s. It also gave a viscosity (313.15 K, 100 kPa, Capillary tube (Ostwald / Ubbelohde) method, x1 = 0.25) of 0.386 ± 0.008 mPa·s, a viscosity (313.15 K, 100 kPa, Capillary tube (Ostwald / Ubbelohde) method, x1 = 0.375) of 0.441 ± 0.009 mPa·s and a viscosity (313.15 K, 100 kPa, Capillary tube (Ostwald / Ubbelohde) method, x1 = 0.5) of 0.526 ± 0.011 mPa·s. It also gave a viscosity (313.15 K, 100 kPa, Capillary tube (Ostwald / Ubbelohde) method, x1 = 0.625) of 0.617 ± 0.013 mPa·s, a viscosity (313.15 K, 100 kPa, Capillary tube (Ostwald / Ubbelohde) method, x1 = 0.75) of 0.735 ± 0.015 mPa·s and a viscosity (313.15 K, 100 kPa, Capillary tube (Ostwald / Ubbelohde) method, x1 = 1) of 0.983 ± 0.021 mPa·s. For the same compound, the viscosity (313.15 K, 20000 kPa, Falling or rolling sphere viscometry, x1 = 0.25) was 0.476 ± 0.01 mPa·s, the viscosity (313.15 K, 20000 kPa, Falling or rolling sphere viscometry, x1 = 0.375) was 0.598 ± 0.013 mPa·s and the viscosity (313.15 K, 20000 kPa, Falling or rolling sphere viscometry, x1 = 0.5) was 0.701 ± 0.015 mPa·s. For the same compound, the viscosity (313.15 K, 20000 kPa, Falling or rolling sphere viscometry, x1 = 0.625) was 0.821 ± 0.018 mPa·s, the viscosity (313.15 K, 20000 kPa, Falling or rolling sphere viscometry, x1 = 0.75) was 0.979 ± 0.022 mPa·s and the viscosity (313.15 K, 20000 kPa, Falling or rolling sphere viscometry, x1 = 1) was 1.356 ± 0.03 mPa·s. The viscosity (313.15 K, 40000 kPa, Falling or rolling sphere viscometry, x1 = 0.25) was 0.587 ± 0.013 mPa·s, the viscosity (313.15 K, 40000 kPa, Falling or rolling sphere viscometry, x1 = 0.375) was 0.748 ± 0.016 mPa·s and the viscosity (313.15 K, 40000 kPa, Falling or rolling sphere viscometry, x1 = 0.5) was 0.894 ± 0.02 mPa·s. The viscosity (313.15 K, 40000 kPa, Falling or rolling sphere viscometry, x1 = 0.625) was 1.059 ± 0.023 mPa·s, the viscosity (313.15 K, 40000 kPa, Falling or rolling sphere viscometry, x1 = 0.75) was 1.292 ± 0.029 mPa·s and the viscosity (313.15 K, 40000 kPa, Falling or rolling sphere viscometry, x1 = 1) was 1.869 ± 0.042 mPa·s. The viscosity (313.15 K, 60000 kPa, Falling or rolling sphere viscometry, x1 = 0.25) was 0.712 ± 0.016 mPa·s, the viscosity (313.15 K, 60000 kPa, Falling or rolling sphere viscometry, x1 = 0.375) was 0.917 ± 0.02 mPa·s and the viscosity (313.15 K, 60000 kPa, Falling or rolling sphere viscometry, x1 = 0.5) was 1.118 ± 0.024 mPa·s. For the same compound, the viscosity (313.15 K, 60000 kPa, Falling or rolling sphere viscometry, x1 = 0.625) was 1.339 ± 0.029 mPa·s, the viscosity (313.15 K, 60000 kPa, Falling or rolling sphere viscometry, x1 = 0.75) was 1.668 ± 0.037 mPa·s and the viscosity (313.15 K, 60000 kPa, Falling or rolling sphere viscometry, x1 = 1) was 2.51 ± 0.056 mPa·s. The viscosity (313.15 K, 80000 kPa, Falling or rolling sphere viscometry, x1 = 0.25) was 0.853 ± 0.019 mPa·s, the viscosity (313.15 K, 80000 kPa, Falling or rolling sphere viscometry, x1 = 0.375) was 1.104 ± 0.024 mPa·s and the viscosity (313.15 K, 80000 kPa, Falling or rolling sphere viscometry, x1 = 0.5) was 1.376 ± 0.03 mPa·s. The viscosity (313.15 K, 80000 kPa, Falling or rolling sphere viscometry, x1 = 0.625) was 1.669 ± 0.037 mPa·s, the viscosity (313.15 K, 80000 kPa, Falling or rolling sphere viscometry, x1 = 0.75) was 2.119 ± 0.047 mPa·s and the viscosity (313.15 K, 80000 kPa, Falling or rolling sphere viscometry, x1 = 1) was 3.31 ± 0.073 mPa·s. It also gave a viscosity (313.15 K, 100000 kPa, Falling or rolling sphere viscometry, x1 = 0.25) of 1.014 ± 0.022 mPa·s, a viscosity (313.15 K, 100000 kPa, Falling or rolling sphere viscometry, x1 = 0.375) of 1.312 ± 0.029 mPa·s and a viscosity (313.15 K, 100000 kPa, Falling or rolling sphere viscometry, x1 = 0.5) of 1.677 ± 0.037 mPa·s. It also gave a viscosity (313.15 K, 100000 kPa, Falling or rolling sphere viscometry, x1 = 0.625) of 2.058 ± 0.045 mPa·s.
